Laboratory results: patent publication EP4818168A1, “FUSED RING COMPOUND, PHARMACEUTICAL COMPOSITION THEREOF AND USE THEREOF” (priority 2023, dated 2025)
Where two headings read alike, the source gives them in different places.

What was measured:
AURKA = target: T1, AURKA (Homo sapiens, UniProt O14965); format: cell-based
T1 construct: endogenous in cells; host or cells: Jurkat cells
T1 sequence (O14965 1-403): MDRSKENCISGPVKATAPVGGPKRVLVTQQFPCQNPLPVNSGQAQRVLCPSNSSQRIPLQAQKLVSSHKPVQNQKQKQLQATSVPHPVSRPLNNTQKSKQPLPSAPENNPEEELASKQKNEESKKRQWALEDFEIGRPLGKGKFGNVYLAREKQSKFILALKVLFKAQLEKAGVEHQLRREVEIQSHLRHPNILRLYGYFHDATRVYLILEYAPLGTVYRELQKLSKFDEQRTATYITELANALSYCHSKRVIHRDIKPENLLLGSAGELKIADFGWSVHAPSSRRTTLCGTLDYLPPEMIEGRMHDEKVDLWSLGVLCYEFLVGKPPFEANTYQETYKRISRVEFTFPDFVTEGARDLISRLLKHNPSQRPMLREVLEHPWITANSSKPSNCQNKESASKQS
In short: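 Jurkat cells seeded at 1×10^6 cells/500 µL and treated with compound; lysates run on SDS-PAGE, blotted to nitrocellulose and probed overnight at 4°C for AURKA. Chemiluminescent or fluorescent band intensity fitted to a curve to give DC50 for protein degradation.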

H82 cells = assay: cells; format: cell-based
In short: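 H82 cells in RPMI1640 + 10% FBS exposed to compound (0.1% DMSO final) for 6 days at 37 °C, 5% CO2. Viability read by CellTiter-Glo ATP luminescence, normalised to DMSO and medium controls; IC50 from nonlinear regression of the dose–survival curve.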

[1] = Homo sapiens, NCI-H82, read-out: IC50 in H82 Cells
[2] = 100 nM compound, Jurkat cells, 24 h, Table 2
[3] = 1 µM compound, Jurkat cells, 24 h, Table 2
[4] = Homo sapiens, NCI-H82, H82 cells, 4000 cells/well, CellTiter-Glo, read-out: IC50 in H82 Cells

| Compound | Percentage of AURKA Degradation Induced by 100 nM Compound in Jurkat Cells (AURKA) | Percentage of AURKA Degradation Induced by 1 µM Compound in Jurkat Cells (AURKA) | IC50 (H82 cells; [1]) | Percentage of AURKA Degradation Induced by 100 nM Compound in Jurkat Cells (AURKA; [2]) | Percentage of AURKA Degradation Induced by 1 µM Compound in Jurkat Cells (AURKA; [3]) | IC50 (H82 cells; [4]) | IC50 (H82 cells; read-out: IC50 in H82 Cells, H82 cells, 4000 cells/well, CellTiter-Glo) |
| --- | --- | --- | --- | --- | --- | --- | --- |
| O=C1CCN(c2ccc(N3CC(N4CCN(Cc5ccc(Nc6ncc7c(n6)-c6ccc(Cl)cc6C(c6c(F)cccc6F)=NC7)cc5)C(=O)C4)C3)nc2)C(=O)N1 [Compound A267] | ++ (key: +: Degradation ≤ 30%; ++: 30% < Degradation ≤ 70%; +++: Degradation > 70%) | +++ (key: +: Degradation ≤ 30%; ++: 30% < Degradation ≤ 70%; +++: Degradation > 70%) | < 1000 nM |  |  |  |  |
| CC1(C)CN(C23CC(Nc4ncc5c(n4)-c4ccc(Cl)cc4C(c4c(F)cccc4F)=NC5)(C2)C3)C(=O)CN1CC1CCN(c2ccc(N3CCC(=O)NC3=O)cn2)CC1 [Compound A316] | ++ (key: +: Degradation ≤ 30%; ++: 30% < Degradation ≤ 70%; +++: Degradation > 70%) | ++ (key: +: Degradation ≤ 30%; ++: 30% < Degradation ≤ 70%; +++: Degradation > 70%) | < 1000 nM |  |  |  |  |
| COc1cc(Nc2ncc3c(n2)-c2ccc(Cl)cc2C(c2c(F)cccc2OC)=NC3)ccc1N1CCN(C2CCN(c3ccc(N4CCC(=O)NC4=O)cn3)CC2)CC1 [Compound A256] |  |  |  | +++ (Degradation > 70%) | +++ (Degradation > 70%) | < 1000 nM |  |
| N#Cc1cc(Nc2ncc3c(n2)-c2ccc(Cl)cc2C(c2c(F)cccc2F)=NC3)ccc1N1CCN(C2CCN(c3ccc(N4CCC(=O)NC4=O)cn3)CC2)CC1 [Compound A211] |  |  |  | ++ (30% < Degradation ≤ 70%) | +++ (Degradation > 70%) | < 1000 nM |  |
| O=C1CCN(c2cncc(N3CCN(C4CN(c5cccc(Nc6ncc7c(n6)-c6ccc(Cl)cc6C(c6c(F)cccc6F)=NC7)c5)C4)CC3)c2)C(=O)N1 [Compound A183] |  |  |  | +++ (Degradation > 70%) | +++ (Degradation > 70%) | < 1000 nM |  |
| O=C1CCN(c2ccc(N3CCC4(CC3)CC(N3CCN(c5ccc(Nc6ncc7c(n6)-c6ccc(Cl)cc6C(c6nccs6)=NC7)cc5)CC3)CO4)nc2)C(=O)N1 (stereo not drawn) [Compound A345] |  |  |  | +++ (Degradation > 70%) | +++ (Degradation > 70%) | < 1000 nM |  |
| O=C1CCN(c2cnc(N3CCN(CCN4Cc5ccc(Nc6ncc7c(n6)-c6ccc(Cl)cc6C(c6c(F)cccc6F)=NC7)cc5C4)CC3)s2)C(=O)N1 [Compound A174] |  |  |  | ++ (30% < Degradation ≤ 70%) | ++ (30% < Degradation ≤ 70%) | < 1000 nM |  |
| O=C1CCN(c2ccc(N3CCC(N4CCN(C56CC(Nc7ncc8c(n7)-c7ccc(Cl)cc7C(c7c(F)cccc7F)=NC8)(C5)C6)CC4)CC3)nc2)C(=O)N1 [Compound A216] |  |  |  | ++ (30% < Degradation ≤ 70%) | ++ (30% < Degradation ≤ 70%) | < 1000 nM |  |
| Cn1c(CN2CCN(c3ccc(N4CCC(=O)NC4=O)cc3)CC2)cnc1-c1ccc(Nc2ncc3c(n2)-c2ccc(Cl)cc2C(c2c(F)cccc2F)=NC3)cc1 [Compound A106] |  |  |  | +++ (Degradation > 70%) | +++ (Degradation > 70%) | < 1000 nM |  |
| O=C1CCN(c2ccc(N3CC(C4CCN(C(=O)C56CC(Nc7ncc8c(n7)-c7ccc(Cl)cc7C(c7c(F)cccc7F)=NC8)(C5)C6)CC4)C3)nc2)C(=O)N1 [Compound A297] |  |  |  | +++ (Degradation > 70%) | +++ (Degradation > 70%) | < 1000 nM |  |
| Cc1c(N2CC(CN3CCc4ccc(Nc5ncc6c(n5)-c5ccc(Cl)cc5C(c5c(F)cccc5F)=NC6)cc4C3)C2)cccc1N1CCC(=O)NC1=O [Compound A176] |  |  |  | +++ (Degradation > 70%) | +++ (Degradation > 70%) | < 1000 nM |  |
| O=C1CCN(c2ccc(N3CCC(N4CCN(c5ccc(Nc6ncc7c(n6)-c6ccc(Cl)cc6C(c6c(F)cccc6F)=NC7)cc5)C(=O)C4)CC3)nc2)C(=O)N1 [Compound A132] | +++ (key: +: Degradation ≤ 30%; ++: 30% < Degradation ≤ 70%; +++: Degradation > 70%) | +++ (key: +: Degradation ≤ 30%; ++: 30% < Degradation ≤ 70%; +++: Degradation > 70%) | < 1000 nM |  |  |  |  |
| COc1cc(Nc2ncc3c(n2)-c2ccc(Cl)cc2C(c2c(F)cccc2OC)=NC3)ccc1N1CC(CN2CCN(c3ccc(N4CCC(=O)NC4=O)cn3)CC2)C1 [Compound A261] |  |  |  | +++ (Degradation > 70%) | +++ (Degradation > 70%) | < 1000 nM |  |
| O=C1CCN(c2ccc(N3CCN(C(=O)C4CCN(C56CC(Nc7ncc8c(n7)-c7ccc(Cl)cc7C(c7c(F)cccc7F)=NC8)(C5)C6)CC4)CC3)nc2)C(=O)N1 [Compound A243] |  |  |  | +++ (Degradation > 70%) | +++ (Degradation > 70%) | < 1000 nM |  |
| O=C1CCN(c2ccc(N3CC(N4CCN(C(=O)C56CC(Nc7ncc8c(n7)-c7ccc(Cl)cc7C(c7c(F)cccc7F)=NC8)(C5)C6)CC4)C3)nc2)C(=O)N1 [Compound A275] |  |  |  | +++ (Degradation > 70%) | +++ (Degradation > 70%) | < 1000 nM |  |
| CP(C)(=O)c1ccc2c(c1)C(c1c(F)cccc1F)=NCc1cnc(Nc3ccc(N4CC(CN5CCN(c6ccc(N7CCC(=O)NC7=O)cn6)CC5)C4)cc3)nc1-2 [Compound A269] |  |  |  | +++ (Degradation > 70%) | +++ (Degradation > 70%) | 1000 to 10000 nM |  |
| O=C1CCN(c2ccc(N3CCOC4(CC(N5CCN(C67CC(Nc8ncc9c(n8)-c8ccc(Cl)cc8C(c8c(F)cccc8F)=NC9)(C6)C7)C(=O)C5)C4)C3)nc2)C(=O)N1 (single isomer, unassigned) [Compound A349] |  |  |  | ++ (30% < Degradation ≤ 70%) | ++ (30% < Degradation ≤ 70%) |  | < 1000 nM |
| O=C1CCN(c2ccc(N3CCC(OC4CN(c5ccc(Nc6ncc7c(n6)-c6ccc(Cl)cc6C(c6c(F)cccc6F)=NC7)cc5)C4)CC3)nc2)C(=O)N1 [Compound A254] |  |  |  | +++ (Degradation > 70%) | ++ (30% < Degradation ≤ 70%) | < 1000 nM |  |
| Cc1c(N2CCN(CCc3cccc(Nc4ncc5c(n4)-c4ccc(Cl)cc4C(c4c(F)cccc4F)=NC5)c3)CC2)cccc1N1CCC(=O)NC1=O [Compound A155] |  |  |  | ++ (30% < Degradation ≤ 70%) | ++ (30% < Degradation ≤ 70%) | < 1000 nM |  |
| CN(CCN1CCN(c2ccc(N3CCC(=O)NC3=O)cc2)CC1)C(=O)c1ccc(Nc2ncc3c(n2)-c2ccc(C4CC4)cc2C(c2c(F)cccc2F)=NC3)cc1 [Compound A136] |  |  |  | +++ (Degradation > 70%) | +++ (Degradation > 70%) | < 1000 nM |  |
| N#Cc1cc(N2CCC(=O)NC2=O)cnc1N1CCN(C(=O)C2CCN(c3ccc(Nc4ncc5c(n4)-c4ccc(Cl)cc4C(c4c(F)cccc4F)=NC5)cc3)CC2)CC1 [Compound A326] |  |  |  | +++ (Degradation > 70%) | +++ (Degradation > 70%) | < 1000 nM |  |
| O=C1CCN(c2cccc(N3CCC(CN4CC(c5cccc(Nc6ncc7c(n6)-c6ccc(Cl)cc6C(c6c(F)cccc6F)=NC7)c5)C4)CC3)c2)C(=O)N1 [Compound A143] |  |  |  | +++ (Degradation > 70%) | +++ (Degradation > 70%) | < 1000 nM |  |
